# According to paper PMC7050258, “Inhibition of MGAT2 modulates fat‐induced gut peptide release and fat intake in normal mice and ameliorates obesity and diabetes in ob/ob mice fed on a high‐fat diet” (FEBS Open Bio, 2020):
# Several values for one entry are separate records, joined by “and”; a condition that tells them apart may be missing. Identical values can stand only once.
# Columns and labels:
# DGAT2 human = molecular target: T1, DGAT2 human (Homo sapiens, UniProt Q96PD7); test: in vitro inhibitory activity against DGAT2; type: biochemical
# T1 sequence (Q96PD7 1-388): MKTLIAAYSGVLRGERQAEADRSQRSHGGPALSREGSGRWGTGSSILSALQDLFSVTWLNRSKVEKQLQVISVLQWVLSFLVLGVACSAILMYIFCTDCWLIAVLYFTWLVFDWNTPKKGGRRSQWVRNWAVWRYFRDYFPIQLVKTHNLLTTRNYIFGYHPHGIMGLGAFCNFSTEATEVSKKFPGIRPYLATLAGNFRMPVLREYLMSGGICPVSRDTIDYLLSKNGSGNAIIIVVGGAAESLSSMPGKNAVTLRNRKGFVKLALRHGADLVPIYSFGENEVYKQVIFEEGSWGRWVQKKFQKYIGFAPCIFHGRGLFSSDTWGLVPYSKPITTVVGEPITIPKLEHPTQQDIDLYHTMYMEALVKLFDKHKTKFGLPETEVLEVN
# Protocol: (§1) CpdB, CpdA, and pioglitazone were synthesized at Takeda Pharmaceutical Co., Ltd. (Tokyo, Japan). The in vitro inhibitory activities of CpdB and CpdA against MGAT2 and related acyltransferases (DGAT1, DGAT2, and ACAT1) were evaluated as described in our previous report 17 and patent application 19. Liraglutide (Victoza) was purchased from Novo Nordisk Pharma Ltd. (Bagsvaerd, Denmark). All other chemicals were of analytical grade and purchased from Wako Pure Chemicals (Osaka, Japan).
# C57BL/6J mice [1] = test: Oral meal tolerance test (MTT), plasma chylomicron TG; type: in vivo, mouse; conditions: for Plasma CM/TG AUC (0-4 h), AVE: mean, N=6; for Plasma CM/TG AUC (0-4 h), individual animal: single animal values
# Protocol: Overnight‐fasted C57BL/6J mice underwent an MTT in the morning. Vehicle, CpdA (3, 10 mg·kg^−1), or Cpd B (3, 10 mg·kg^−1) was administered by gavage. The compound was suspended in 0.5% methylcellulose. […] Thirty minutes after injection, liquid meal (10 mL·kg^−1) comprising an admixture of corn oil and Ensure‐H (3 : 17 v/v) (Abbott Japan Co., Ltd., Tokyo, Japan) was orally loaded. Blood samples were collected preload (defined as 0 h) and 2 and 4 h after fat load, and plasma TG levels were measured. The area under the curve (AUC) of chylomicron TG (CM/TG), which is synthesized from dietary fat in the small intestine, was calculated by subtracting the plasma TG levels of the meal‐unloaded group from that of the meal‐loaded group.
# ACAT1 human = molecular target: T2, ACAT1 human (Homo sapiens, UniProt P35610); test: in vitro inhibitory activity against ACAT1; type: biochemical
# T2 sequence (P35610 1-550): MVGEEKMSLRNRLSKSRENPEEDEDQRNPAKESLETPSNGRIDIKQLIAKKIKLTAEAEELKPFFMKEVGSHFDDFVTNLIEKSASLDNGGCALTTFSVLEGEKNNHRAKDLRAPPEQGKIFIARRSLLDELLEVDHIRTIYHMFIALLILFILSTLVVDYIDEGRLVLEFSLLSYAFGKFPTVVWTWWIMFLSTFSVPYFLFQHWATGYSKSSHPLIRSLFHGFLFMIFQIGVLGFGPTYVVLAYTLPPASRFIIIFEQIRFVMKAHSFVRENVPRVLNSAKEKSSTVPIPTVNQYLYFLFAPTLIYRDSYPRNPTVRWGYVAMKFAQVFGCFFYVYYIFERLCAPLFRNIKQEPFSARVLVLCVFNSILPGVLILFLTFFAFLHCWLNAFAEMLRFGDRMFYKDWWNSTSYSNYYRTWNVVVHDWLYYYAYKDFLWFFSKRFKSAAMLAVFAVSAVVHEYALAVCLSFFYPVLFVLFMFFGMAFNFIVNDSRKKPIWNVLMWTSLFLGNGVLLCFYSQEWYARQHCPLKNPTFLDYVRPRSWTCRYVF
# Protocol: as §1
# C57BL/6J mice [2] = test: Fat-induced gut peptide release and plasma TG after meal or oil load; type: in vivo, mouse; conditions: for Plasma total GLP-1 at 3 h, AVE / ΔPlasma total PYY AUC (0-2 h), AVE / Plasma total GLP-1 at 3 h, individual animal / ΔPlasma total PYY AUC (0-2 h), individual animal: CpdB 10 mg/kg oral; for Plasma total GLP-1 at 3 h, AVE / ΔPlasma total PYY AUC (0-2 h), AVE / Plasma TG at 2 h after oil load, AVE: mean, N=5; for Plasma total GLP-1 at 3 h, individual animal / ΔPlasma total PYY AUC (0-2 h), individual animal / Plasma TG at 2 h after oil load, individual animal: single animal values
# Protocol: CpdB was suspended in 0.5% methylcellulose. Thirty minutes after administration, fat was loaded via oral gavage of either olive oil (8 mL·kg^−1) or liquid meal as described above (10 mL·kg^−1). Blood samples were collected precompound administration (defined as 0 h) and 1, 2, and 3 h after fat loading. Plasma levels of peptide tyrosine–tyrosine (PYY) and GLP‐1 were measured. To confirm the in vivo efficacy of CpdB, plasma TG levels were measured 2 h after olive oil loading. Mice orally loaded with water (8 mL·kg^−1) following vehicle administration were prepared as the control group.
# Blood samples were collected from the tail or facial vein without anesthesia and centrifuged at 1500 g for 10 min at 4 °C to isolate the plasma. To prevent degradation of incretin hormone, blood samples were treated with not only heparin/aprotinin but also a dipeptidyl peptidase‐4 (DPP‐4) inhibitor. Plasma alanine aminotransferase […] levels were measured by an Autoanalyzer 7180 (Hitachi High‐Technologies Corporation, Tokyo, Japan). GHb was measured with an automated GHb analyzer (HLC‐723G8; Tosoh, Tokyo, Japan). Plasma insulin was measured with an ELISA kit (Shibayagi Co., Ltd., Gunma, Japan). Plasma levels of total GLP‐1 and total PYY were also measured with an ELISA kit (Wako Pure Chemicals).
# mouse MGAT2 = mouse MGAT2 (Mus musculus, UniProt Q80W94); test: in vitro inhibitory activity against MGAT2 (mouse); type: biochemical
# Protocol: as §1
# Sequence of mouse MGAT2 (Q80W94 whole entry): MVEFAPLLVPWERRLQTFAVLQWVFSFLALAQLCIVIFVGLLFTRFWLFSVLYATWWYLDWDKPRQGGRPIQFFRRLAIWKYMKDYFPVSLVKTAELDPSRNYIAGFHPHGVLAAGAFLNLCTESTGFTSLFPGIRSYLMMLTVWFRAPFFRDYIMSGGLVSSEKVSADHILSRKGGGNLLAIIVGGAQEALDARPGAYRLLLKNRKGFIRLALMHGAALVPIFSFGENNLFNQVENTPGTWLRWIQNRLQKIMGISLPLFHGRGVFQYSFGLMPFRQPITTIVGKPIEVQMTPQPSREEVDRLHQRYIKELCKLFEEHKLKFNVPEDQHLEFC
smiles,measurement,setting,value
CC(C)(OC(=O)N[C@H]1CC[C@H](OC(=O)N2CCc3cc(S(=O)(=O)Nc4c(F)cc(Cl)cc4F)cc(N4CCCC4=O)c32)CC1)C(F)(F)F [CpdB],IC50,DGAT2 human,> 30 µM
same,"Plasma CM/TG AUC (0-4 h), AVE",C57BL/6J mice [1]; 3 mg/kg oral at -6.5 h,3977.6 mg/dLxh
same,"Plasma CM/TG AUC (0-4 h), individual animal",C57BL/6J mice [1]; 3 mg/kg oral at -6.5 h,3401.5 mg/dLxh and 5885.8 mg/dLxh and 3966.4 mg/dLxh and 3504.4 mg/dLxh and 3174.7 mg/dLxh and 3932.8 mg/dLxh
same,decrease of plasma CM/TG AUC compared with the vehicle group,C57BL/6J mice [1]; 10 mg/kg oral at -6.5 h,37%
same,"Plasma CM/TG AUC (0-4 h), AVE",C57BL/6J mice [1]; 10 mg/kg oral at -6.5 h,4365.7 mg/dLxh
same,"Plasma CM/TG AUC (0-4 h), individual animal",C57BL/6J mice [1]; 10 mg/kg oral at -6.5 h,5644.3 mg/dLxh and 4575.4 mg/dLxh and 4611.1 mg/dLxh and 3882.4 mg/dLxh and 3535.9 mg/dLxh and 3945.4 mg/dLxh
same,"Plasma CM/TG AUC (0-4 h), individual animal",C57BL/6J mice [1]; 10 mg/kg oral at -16.5 h,3845.1 mg/dLxh and 6306.3 mg/dLxh and 6722.1 mg/dLxh and 3383.1 mg/dLxh and 3918.6 mg/dLxh and 3231.9 mg/dLxh
same,"Plasma CM/TG AUC (0-4 h), AVE",C57BL/6J mice [1]; 10 mg/kg oral,4567.8 mg/dLxh
same,IC50,ACAT1 human,> 30 µM
same,"Plasma total GLP-1 at 3 h, AVE",C57BL/6J mice [2]; liquid meal load,1.78 pM
same,"ΔPlasma total PYY AUC (0-2 h), AVE",C57BL/6J mice [2]; liquid meal load,6.19 pMxh
same,"Plasma total GLP-1 at 3 h, individual animal",C57BL/6J mice [2]; liquid meal load,4.08 pM and 1.57 pM and 0.30 pM and 2.65 pM
same,"ΔPlasma total PYY AUC (0-2 h), individual animal",C57BL/6J mice [2]; liquid meal load,7.70 pMxh and -9.56 pMxh and 10.56 pMxh and 11.27 pMxh and 10.99 pMxh
same,"Plasma TG at 2 h after oil load, AVE","C57BL/6J mice [2]; oil load, 10 mg/kg oral",242.5 mg/dL
same,"Plasma TG at 2 h after oil load, individual animal","C57BL/6J mice [2]; oil load, 10 mg/kg oral, 10 mg/kg",165.0 mg/dL and 186.0 mg/dL and 337.8 mg/dL and 259.8 mg/dL and 264.0 mg/dL
same,"Plasma TG at 2 h after oil load, AVE","C57BL/6J mice [2]; oil load, 30 mg/kg oral",219.8 mg/dL
same,"Plasma TG at 2 h after oil load, individual animal","C57BL/6J mice [2]; oil load, 30 mg/kg oral, 30 mg/kg",261.0 mg/dL and 281.4 mg/dL and 164.4 mg/dL and 231.0 mg/dL and 161.4 mg/dL
same,"Plasma total GLP-1 at 3 h, AVE",C57BL/6J mice [2]; oil load,17.63 pM
same,"ΔPlasma total PYY AUC (0-2 h), AVE",C57BL/6J mice [2]; oil load,68.45 pMxh
same,"Plasma total GLP-1 at 3 h, individual animal",C57BL/6J mice [2]; oil load,14.07 pM and 19.72 pM and 15.79 pM and 16.41 pM and 22.18 pM
same,"ΔPlasma total PYY AUC (0-2 h), individual animal",C57BL/6J mice [2]; oil load,83.34 pMxh and 44.80 pMxh and 90.28 pMxh and 47.69 pMxh and 76.14 pMxh
same,IC50,mouse MGAT2,0.00085 µM
